Drawing on ChEMBL document CHEMBL4304779, “Treatment of Cancers by Inhibition of Isoprenylcysteine Carboxyl Methyltransferase” (ACS Med Chem Lett, 2019), this text covers IC50 for two compounds.

This test deals with Protein-S-isoprenylcysteine O-methyltransferase (Homo sapiens, UniProt O60725). In words: Inhibition of recombinant human ICMT expressed in baculovirus infected Sf9 insect cells using SAM as substrate preincubated for 30 mins followed by substrate addition and measured after 90 mins by MTase-Glo assay.
Sequence of Protein-S-isoprenylcysteine O-methyltransferase (O60725 whole entry): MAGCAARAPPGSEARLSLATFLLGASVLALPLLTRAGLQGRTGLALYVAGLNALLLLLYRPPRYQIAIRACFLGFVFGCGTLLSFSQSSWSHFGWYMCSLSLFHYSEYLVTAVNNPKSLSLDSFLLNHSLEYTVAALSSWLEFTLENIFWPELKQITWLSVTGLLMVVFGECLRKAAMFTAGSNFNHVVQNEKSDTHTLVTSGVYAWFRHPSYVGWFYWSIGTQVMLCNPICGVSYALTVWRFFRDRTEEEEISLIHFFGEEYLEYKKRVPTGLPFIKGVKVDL

Consider `Cc1cc(C#N)ccc1O[C@@H](C)COc1cccc(-c2ccnn2C)c1`, for which the IC50 is 1.6 nM.

Take `COc1cc(C#N)ccc1O[C@@H](C)COc1cccc(-n2ccnc2C)c1`: the IC50 amounted to 0.08 nM.
